Key:
[1] = Cell viability assay (AlamarBlue) in HepAD38 cells; conditions: human
HBV = assay: Determination of HBV DNA from the supernatants of HepAD38 cells (anti-HBV activity); assay type: cell-based, hepatitis B virus; conditions: Hepatitis B virus, 144 h; HBV DNA in HepAD38 supernatant, day 6, qPCR; read-out: Cell Activity (EC50)
Protocol: Determination of HBV DNA from the Supernatants of HepAD38 Cells
The anti-HBV activity was analysed in the stable transfected cell line HepAD38, which has been described to secrete high levels of HBV virion particles (Ladner et al., 1997). In brief, HepAD38 cells were cultured at 37° C. at 5% CO2 and 95% humidity in 200 μl maintenance medium, which was Dulbecco's modified Eagle's medium/Nutrient Mixture F-12 (Gibco, Karlsruhe), 10% fetal bovine serum (PAN Biotech Aidenbach) supplemented with 50 μg/ml penicillin/streptomycin (Gibco, Karlsruhe), 2 mM L-glutamine (PAN Biotech, Aidenbach), 400 μg/ml G418 (AppliChem, Darmstadt) and 0.3 μg/ml tetracycline. Cells were subcultured once a week in a 1:5 ratio, but were usually not passaged more than ten times. For the assay 60,000 cells were seeded in maintenance medium without any tetracycline into each well of a 96-well plate and treated with serial half-log dilutions of test compound. To minimize edge effects the outer 36 wells of the plate were not used but were filled with assay medium. On each assay plate six wells for the virus control (untreated HepAD38 cells) and six wells for the cell control (HepAD38 cells treated with 0.3 μg/ml tetracycline) were allocated, respectively. In addition, one plate set with reference inhibitors like BAY 41-4109, entecavir, and lamivudine instead of screening compounds were prepared in each experiment. In general, experiments were performed thrice in triplicates. At day 6 HBV DNA from 100 μl filtrated cell culture supernatant (AcroPrep Advance 96 Filter Plate, […] Supor membran, PALL GmbH, Dreieich) was automatically purified on the MagNa Pure LC instrument using the MagNA Pure 96 DNA and Viral NA Small Volume Kit (Roche Diagnostics, Mannheim) according to the instructions of the manufacturer. EC50 values were calculated from relative copy numbers of HBV DNA In brief, 5 μl of the 100 μl eluate containing HBV DNA were subjected to PCR LC480 Probes Master Kit (Roche) together with 1 μM antisense primer […], 0.5 μM sense primer […], 0.3 μM hybprobes […]-FL and LC640-[…]-PH (TIBMoBiol, Berlin) to a final volume of 12.5 μl. The PCR was performed on the Light Cycler 480 real time system (Roche Diagnostics, Mannheim) using the following protocol: Pre-incubation for 1 min at 95° C., amplification: 40 cycles×(10 sec at 95° C., 50 sec at 60° C., 1 sec at 70° C.), cooling for 10 sec at 40° C. Viral load was quantitated against known standards using HBV plasmid DNA of pCH-9/3091 (Nassal et al., 1990, Cell 63: 1357-1363) and the LightCycler 480 SW 1.5 software (Roche Diagnostics, Mannheim) and EC50 values were calculated using non-linear regression with GraphPad Prism 6 (GraphPad Software Inc., La Jolla, USA).

Row | Structure (SMILES) | CC50 at 6 days [1] | EC50 (HBV)
1 | O=C(c1cc2c(F)c(F)c(F)cc2[nH]1)N1CCc2n[nH]c(-c3cscn3)c2C1 [Example 11, 4,5,6-trifluoro-2-[3-(1,3-thiazol-4-yl)-2H,4H,5H,6H,7H-pyrazolo[4,3-c]pyridine-5-carbonyl]-1H-indole] | > 10 µM | < 1 µM
2 | O=C(c1cc2c(Cl)c(F)ccc2[nH]1)N1CCc2n[nH]c(-c3cscn3)c2C1 [Example 13, 4-chloro-5-fluoro-2-[3-(1,3-thiazol-4-yl)-2H,4H,5H,6H,7H-pyrazolo[4,3-c]pyridine-5-carbonyl]-1H-indole] | > 10 µM | < 1 µM
3 | O=C(c1cc2cc(F)c(F)cc2[nH]1)N1CCc2n[nH]c(-c3cscn3)c2C1 [Example 14, 5,6-difluoro-2-[3-(1,3-thiazol-4-yl)-2H,4H,5H,6H,7H-pyrazolo[4,3-c]pyridine-5-carbonyl]-1H-indole] | > 10 µM | < 1 µM
4 | CCc1c(F)ccc2[nH]c(C(=O)N3CCc4n[nH]c(-c5cscn5)c4C3)cc12 [Example 25, 4-ethyl-5-fluoro-2-[3-(1,3-thiazol-4-yl)-2H,4H,5H,6H,7H-pyrazolo[4,3-c]pyridine-5-carbonyl]-1H-indole] | > 10 µM | 1 to 25 µM
5 | CC1c2c(-c3cscn3)n[nH]c2CCN1C(=O)c1cc2c(Cl)cc(F)cc2[nH]1 (centres unmarked) [Example 35, 4-chloro-6-fluoro-2-[4-methyl-3-(1,3-thiazol-4-yl)-1H,4H,5H,6H,7H-pyrazolo[4,3-c]pyridine-5-carbonyl]-1H-indole] | > 32 µM | < 1 µM
6 | O=C(NC1CCCCC1)c1n[nH]c2c1CN(C(=O)c1cc3ccccc3[nH]1)CC2 [Example 87, N-cyclohexyl-5-(1H-indole-2-carbonyl)-1H,4H,5H,6H,7H-pyrazolo[4,3-c]pyridine-3-carboxamide] | > 100 µM | 1 to 25 µM
7 | C[C@@H]1CCC[C@@H](C)N1C(=O)c1n[nH]c2c1CN(C(=O)c1cc3ccccc3[nH]1)CC2 [Example 146, 2-{3-[(2R,6R)-2,6-dimethylpiperidine-1-carbonyl]-1H,4H,5H,6H,7H-pyrazolo[4,3-c]pyridine-5-carbonyl}-1H-indole] | > 10 µM | 1 to 25 µM
8 | O=C(c1cc2ccccc2[nH]1)N1CCc2[nH]nc(C(=O)N3CCCC34CCC4)c2C1 [Example 151, 2-(3-{5-azaspiro[3.4]octane-5-carbonyl}-1H,4H,5H,6H,7H-pyrazolo[4,3-c]pyridine-5-carbonyl)-1H-indole] | > 10 µM | 1 to 25 µM
9 | Cn1ncc2c1CN(C(=O)c1n[nH]c3c1CN(C(=O)c1cc4ccccc4[nH]1)CC3)C2 [Example 168, 2-(3-{1-methyl-1H,4H,5H,6H-pyrrolo[3,4-c]pyrazole-5-carbonyl}-1H,4H,5H,6H,7H-pyrazolo[4,3-c]pyridine-5-carbonyl)-1H-indole] | > 10 µM | 1 to 25 µM
10 | O=C(c1cc2ccccc2[nH]1)N1CCc2[nH]nc(C(=O)N3CCC4(CCO4)C3)c2C1 (centres unmarked) [Example 182, 2-(3-{1-oxa-6-azaspiro[3.4]octane-6-carbonyl}-1H,4H,5H,6H,7H-pyrazolo[4,3-c]pyridine-5-carbonyl)-1H-indole] | > 10 µM | 1 to 25 µM
11 | O=C(c1cc2ccccc2[nH]1)N1CCc2[nH]nc(C(=O)N3CCC4(COC4)C3)c2C1 [Example 183, 2-(3-{2-oxa-6-azaspiro[3.4]octane-6-carbonyl}-1H,4H,5H,6H,7H-pyrazolo[4,3-c]pyridine-5-carbonyl)-1H-indole] | > 10 µM | 1 to 25 µM
12 | O=C(c1cc2ccccc2[nH]1)N1CCc2[nH]nc(C(=O)N3CCC(F)(F)C3)c2C1 [Example 186, 2-[3-(3,3-difluoropyrrolidine-1-carbonyl)-1H,4H,5H,6H,7H-pyrazolo[4,3-c]pyridine-5-carbonyl]-1H-indole] | > 10 µM | < 1 µM
13 | O=C(c1cc2ccccc2[nH]1)N1CCc2[nH]nc(C(=O)N3CCCC(F)(F)C3)c2C1 [Example 187, 2-[3-(3,3-difluoropiperidine-1-carbonyl)-1H,4H,5H,6H,7H-pyrazolo[4,3-c]pyridine-5-carbonyl]-1H-indole] | > 10 µM | < 1 µM
14 | CN(C(=O)c1n[nH]c2c1CN(C(=O)c1cc3ccccc3[nH]1)CC2)[C@@H]1CCCC[C@@H]1O [Example 200, N-[(1R,2S)-2-hydroxycyclohexyl]-5-(1H-indole-2-carbonyl)-N-methyl-1H,4H,5H,6H,7H-pyrazolo[4,3-c]pyridine-3-carboxamide] | > 10 µM | 1 to 25 µM
15 | O=C(c1cc2ccccc2[nH]1)N1CCc2[nH]nc(S(=O)(=O)N3CC(F)(F)C3)c2C1 [Example 209, 2-{3-[(3,3-difluoroazetidin-1-yl)sulfonyl]-1H,4H,5H,6H,7H-pyrazolo[4,3-c]pyridine-5-carbonyl}-1H-indole] | > 10 µM | < 1 µM
16 | O=C(c1cc2ccccc2[nH]1)N1CCc2[nH]nc(S(=O)(=O)N3CCCC3)c2C1 [Example 210, 2-[3-(pyrrolidine-1-sulfonyl)-1H,4H,5H,6H,7H-pyrazolo[4,3-c]pyridine-5-carbonyl]-1H-indole] | > 10 µM | < 1 µM
17 | COCCN(C)S(=O)(=O)c1n[nH]c2c1CN(C(=O)c1cc3ccccc3[nH]1)CC2 [Example 212, 5-(1H-indole-2-carbonyl)-N-(2-methoxyethyl)-N-methyl-1H,4H,5H,6H,7H-pyrazolo[4,3-c]pyridine-3-sulfonamide] | > 10 µM | 1 to 25 µM
18 | CCc1cc(F)cc2[nH]c(C(=O)N3CCc4[nH]nc(C(=O)N5CCCC56CC6)c4C3)cc12 [Example 214, 2-(3-{4-azaspiro[2.4]heptane-4-carbonyl}-1H,4H,5H,6H,7H-pyrazolo[4,3-c]pyridine-5-carbonyl)-4-ethyl-6-fluoro-1H-indole] | > 10 µM | < 1 µM
19 | O=C(c1cc2c(Cl)cc(F)cc2[nH]1)N1CCc2[nH]nc(C(=O)N3CCCC34CC4)c2C1 [Example 215, 2-(3-{4-azaspiro[2.4]heptane-4-carbonyl}-1H,4H,5H,6H,7H-pyrazolo[4,3-c]pyridine-5-carbonyl)-4-chloro-6-fluoro-1H-indole] | > 10 µM | < 1 µM
20 | O=C(c1cc2c(Cl)cccc2[nH]1)N1CCc2[nH]nc(C(=O)N3CCCC34CC4)c2C1 [Example 216, 2-(3-{4-azaspiro[2.4]heptane-4-carbonyl}-1H,4H,5H,6H,7H-pyrazolo[4,3-c]pyridine-5-carbonyl)-4-chloro-1H-indole] | > 10 µM | < 1 µM
21 | O=C(c1cc2c(Cl)c(F)ccc2[nH]1)N1CCc2[nH]nc(C(=O)N3CCC(F)(F)C3)c2C1 [Example 217, 4-chloro-2-[3-(3,3-difluoropyrrolidine-1-carbonyl)-1H,4H,5H,6H,7H-pyrazolo[4,3-c]pyridine-5-carbonyl]-5-fluoro-1H-indole] | > 10 µM | < 1 µM
22 | CN(C(=O)c1n[nH]c2c1CN(C(=O)c1cc3ccccc3[nH]1)CC2)C1(COC(=O)c2ccccc2)CC1 [Example 219, {1-[N-methyl 5-(1H-indole-2-carbonyl)-1H,4H,5H,6H,7H-pyrazolo[4,3-c]pyridine-3-amido]cyclopropyl}methyl benzoate] | > 10 µM | < 1 µM
23 | O=C(NC1CC1)c1n[nH]c2c1CN(C(=O)c1cc3ccccc3[nH]1)CC2 [Example 220, N-cyclopropyl-5-(1H-indole-2-carbonyl)-1H,4H,5H,6H,7H-pyrazolo[4,3-c]pyridine-3-carboxamide] | > 10 µM | 1 to 25 µM
24 | CN(C(=O)c1n[nH]c2c1CN(C(=O)c1cc3ccccc3[nH]1)CC2)C1(c2ccccc2)CC1 [Example 221, 5-(1H-indole-2-carbonyl)-N-methyl-N-(1-phenylcyclopropyl)-1H,4H,5H,6H,7H-pyrazolo[4,3-c]pyridine-3-carboxamide] | > 10 µM | < 1 µM
25 | O=C(c1cc2ccccc2[nH]1)N1CCc2[nH]nc(C(=O)N3CC(F)(F)C3)c2C1 [Example 222, 2-[3-(3,3-difluoroazetidine-1-carbonyl)-1H,4H,5H,6H,7H-pyrazolo[4,3-c]pyridine-5-carbonyl]-1H-indole] | > 10 µM | < 1 µM
